In US20110086759A1, “CHEMICAL COMPOUNDS” (SYNGENTA CROP PROTECTION, INC., priority 2007, published 2011) one finds pest or weed control data, which are given here for eight compounds.

Type in all cases: in vivo
Assay [1] deals with Alopecurus myosuroides (ALOMY). Nature of the assay: Pre-emergence biological efficacy, glasshouse pot test. Particulars: 312 h, pre-emergence, rate 1,000 g/ha, evaluated after 13 days (100=total damage to plant; 0=no damage), read-out: Percentage damage caused to weed species, ALOMY. In outline: (§1)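 Scores on a 0–100 damage scale were taken 13 days after spraying. Application rate 1000 or 250 g/ha, one day after sowing, in acetone/water-based aqueous spray containing 0.5% Tween 20.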

Assay [2] concerns Amaranthus retoflexus (AMARE). The assay is described as above. Particulars: Amaranthus retroflexus, 312 h; pre-emergence, rate 1,000 g/ha, evaluated after 13 days (100=total damage to plant; 0=no damage); read-out: Percentage damage caused to weed species, AMARE. A digest of the protocol:
as §1

In assay [3] the test system is Echinochloa crus-galli (ECHCG). The assay is described as above. Particulars: 312 h, pre-emergence, rate 1,000 g/ha, evaluated after 13 days (100=total damage to plant; 0=no damage), read-out: Percentage damage caused to weed species, ECHCG. In outline: as §1
The test system of assay [4] is Ipomea hederaceae (IPOHE). The description is as above. To be noted: Ipomoea hederacea, 312 h; pre-emergence, rate 1,000 g/ha, evaluated after 13 days (100=total damage to plant; 0=no damage); read-out: Percentage damage caused to weed species, IPOHE. A digest of the protocol:
as §1

Assay [5] relates to Setaria faberi (SETFA). Described as above. Particulars: 312 h, pre-emergence, rate 1,000 g/ha, evaluated after 13 days (100=total damage to plant; 0=no damage), read-out: Percentage damage caused to weed species, SETFA. A digest of the protocol: as §1
Assay [6] has as its system Solanum nigrum (SOLNI). The description is as above. To be noted: 312 h, pre-emergence, rate 1,000 g/ha, evaluated after 13 days (100=total damage to plant; 0=no damage), read-out: Percentage damage caused to weed species, SOLNI. A digest of the protocol:
as §1

Assay [7] relates to Alopecurus myosuroides (ALOMY). Put plainly: Post-emergence biological efficacy, glasshouse pot test. Particulars: 312 h, Rate 1,000 g/ha, post-emergence spray, evaluated after 13 days (100=total damage to plant; 0=no damage to plant), read-out: Percentage damage caused to weed species, post-emergence, ALOMY. In outline:
(§2)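 Scored 13 days after spraying on a 0 (no damage) to 100 (total damage) scale. Treatment was a post-emergence spray at 1000 or 250 g/ha, from acetone/water 50:50 plus 0.5% Tween 20, onto 8-day-old plants in soil pots. Growth at 24/16° C, 14 h photoperiod, 65% humidity, watered twice daily.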

Assay [8] concerns Amaranthus retoflexus (AMARE). The assay is described as above. Particulars: Amaranthus retroflexus, 312 h; Rate 1,000 g/ha; post-emergence spray; evaluated after 13 days (100=total damage to plant; 0=no damage to plant); read-out: Percentage damage caused to weed species, post-emergence, AMARE. In outline:
as §2

The subject of assay [9] is Echinochloa crus-galli (ECHCG). The assay is described as above. To be noted: 312 h, Rate 1,000 g/ha, post-emergence spray, evaluated after 13 days (100=total damage to plant; 0=no damage to plant), read-out: Percentage damage caused to weed species, post-emergence, ECHCG. In outline: as §2
In assay [10] the test system is Ipomea hederaceae (IPOHE). The description is as above. Particulars: Ipomoea hederacea, 312 h; Rate 1,000 g/ha; post-emergence spray; evaluated after 13 days (100=total damage to plant; 0=no damage to plant); read-out: Percentage damage caused to weed species, post-emergence, IPOHE. A digest of the protocol:
as §2

Assay [11] concerns Setaria faberi (SETFA). The assay is described as above. Particulars: 312 h, Rate 1,000 g/ha, post-emergence spray, evaluated after 13 days (100=total damage to plant; 0=no damage to plant), read-out: Percentage damage caused to weed species, post-emergence, SETFA. A digest of the protocol: as §2
The test system of assay [12] is Solanum nigrum (SOLNI). The description is as above. To be noted: 312 h, Rate 1,000 g/ha, post-emergence spray, evaluated after 13 days (100=total damage to plant; 0=no damage to plant), read-out: Percentage damage caused to weed species, post-emergence, SOLNI. In outline:
as §2

Regarding `COC(=O)c1nc(-c2ccc(Cl)c(OC)c2F)nc(NCc2ccco2)c1Cl` [Compound 112-125, 5-Chloro-2-(4-chloro-2-fluoro-3-methoxyphenyl)-4-(furan-2-yl-methyl-amino)-6-methoxy-carbonylpyrimidine], the pest or weed control at 1000 g/ha in [1] stood at 70%; in [2], 100%; in [3] it was 100%; in assay [4], 100%; with Setaria faberi (SETFA) [5], 90%; in the assay on Solanum nigrum (SOLNI) [6] it was 90%. For the same compound, the pest or weed control at 1000 g/ha in [7] stood at 80%; in assay [8], 100%; in assay [9], 90%; in assay [10], 90%; with Setaria faberi (SETFA) [11] it was 100%; with Solanum nigrum (SOLNI) [12], 100%.
Regarding `COC(=O)c1nc(-c2ccc(Cl)c(OC)c2F)nc(NCc2ccc(C)o2)c1Cl` [Compound 112-135, 5-Chloro-2-(4-chloro-2-fluoro-3-methoxyphenyl)-6-methoxycarbonyl-4-[(5-methylfuran-2-yl)methylamino)-pyrimidine], the pest or weed control at 1000 g/ha in assay [1] stood at 70%; in [2], 100%; in assay [3], 90%; in assay [4] it was 100%; with Setaria faberi (SETFA) [5], 90%; with Solanum nigrum (SOLNI) [6] it was 100%. Besides, the pest or weed control at 1000 g/ha in assay [7] came out at 70%; in [8], 100%; in assay [9], 90%; in assay [10], 80%; in the assay with Setaria faberi (SETFA) [11] it was 90%; in the assay on Solanum nigrum (SOLNI) [12], 90%.
With `C=Cc1c(NCc2ccco2)nc(-c2ccc(Cl)c(OC)c2F)nc1C(=O)OC` [Compound 139-125, 2-(4-Chloro-2-fluoro-3-methoxyphenyl)-5-ethenyl-4-(furan-2-ylmethylamino)-6-methoxycarbonyl-pyrimidine], the pest or weed control at 1000 g/ha in [1] was found to be 70%; in assay [2] it was 100%; in [3], 80%; in assay [4], 90%; in the assay on Setaria faberi (SETFA) [5] it was 80%; in the assay with Solanum nigrum (SOLNI) [6], 100%. Also, the pest or weed control at 1000 g/ha in assay [7] turned out to be 80%; in assay [8], 100%; in [9] it was 80%; in assay [10] it was 80%; in the assay on Setaria faberi (SETFA) [11], 90%; in the assay with Solanum nigrum (SOLNI) [12], 90%.
Consider `CCCN(Cc1ccccc1)c1nc(C2CC2)nc(C(=O)OC)c1Cl` [Compound 145-60], for which the pest or weed control at 1000 g/ha in [1] was 0%; in [2], 100%; in [3], 0%; in assay [4] it was 40%; with Setaria faberi (SETFA) [5] it was 10%; in the assay with Solanum nigrum (SOLNI) [6] it was 70%. Moreover, the pest or weed control at 1000 g/ha in assay [7] worked out at 20%; in [8] it was 90%; in assay [9], 40%; in assay [10] it was 80%; in the assay on Setaria faberi (SETFA) [11], 70%; in the assay with Solanum nigrum (SOLNI) [12], 80%.
Consider `CCCN(Cc1ccccc1F)c1nc(C2CC2)nc(C(=O)OC)c1Cl` [Compound 145-64, 5-Chloro-2-cyclopropyl-4-[N-(2-fluorophenylmethyl)-N-prop-1-yl-amino]-6-methoxy-carbonylpyrimidine], for which the pest or weed control at 1000 g/ha in [1] was 0%; in assay [2], 70%; in assay [3] it was 0%; in assay [4] it was 70%; in the assay on Setaria faberi (SETFA) [5] it was 0%; in the assay with Solanum nigrum (SOLNI) [6] it was 70%. Also, the pest or weed control at 1000 g/ha in [7] was 0%; in assay [8], 90%; in assay [9] it was 30%; in [10] it was 70%; with Setaria faberi (SETFA) [11], 40%; in the assay with Solanum nigrum (SOLNI) [12] it was 80%.
For the compound `CCCN(Cc1ccc(C)cc1)c1nc(C2CC2)nc(C(=O)OC)c1Cl` [Compound 145-73, 5-Chloro-2-cyclopropyl-6-methoxycarbonyl-4-[N-(4-methyl-phenylmethyl)-N-prop-1-yl-amino]-pyrimidine], the pest or weed control at 1000 g/ha in assay [1] was 30%; in assay [2], 100%; in [3], 30%; in assay [4], 20%; with Setaria faberi (SETFA) [5], 20%; with Solanum nigrum (SOLNI) [6], 70%. Moreover, the pest or weed control at 1000 g/ha in [7] is 10%; in assay [8] it was 80%; in [9], 20%; in assay [10], 70%; in the assay with Setaria faberi (SETFA) [11], 40%; in the assay on Solanum nigrum (SOLNI) [12] it was 50%.
With `COC(=O)c1nc(C2CC2)nc(N(Cc2ccc(C)o2)C(C)C)c1Cl` [Compound 146-135, 5-Chloro-2-cyclopropyl-6-methoxycarbonyl-4-[N-(5-methylfuran-2-ylmethyl)-N-prop-2-yl-amino]-pyrimidine], the pest or weed control at 1000 g/ha in [1] came out at 40%; in [2], 100%; in [3] it was 10%; in assay [4], 100%; in the assay with Setaria faberi (SETFA) [5], 40%; in the assay on Solanum nigrum (SOLNI) [6], 100%. The pest or weed control at 1000 g/ha in [7] was 40%; in assay [8] it was 100%; in [9], 80%; in assay [10], 100%; with Setaria faberi (SETFA) [11], 90%; with Solanum nigrum (SOLNI) [12], 90%.
Take `COC(=O)c1nc(C2CC2)nc(N(C/C=C/c2ccccc2OC)C(C)C)c1Cl` [Compound 146-255, 5-Chloro-2-cyclopropyl-4-{N-isopropyl-N-[3-(2-methoxyphenyl)-prop-2-enyl]-amino}-6-methoxycarbonyl-pyrimidine]: the pest or weed control at 1000 g/ha in assay [1] was found to be 10%; in assay [2] it was 100%; in assay [3] it was 10%; in assay [4], 70%; in the assay with Setaria faberi (SETFA) [5] it was 20%; in the assay with Solanum nigrum (SOLNI) [6], 10%. For the same compound, the pest or weed control at 1000 g/ha in assay [7] was found to be 20%; in [8], 100%; in assay [9], 30%; in [10], 100%; in the assay with Setaria faberi (SETFA) [11] it was 80%; in the assay on Solanum nigrum (SOLNI) [12], 80%.
